# Measurements: patent publication US10370343B2, “[6,6] Fused bicyclic HDAC8 inhibitors” (FORMA Therapeutics, Inc., priority 2015, dated 2019)
# Molecular target: T1, Recombinant N-terminal GST tag full-length human HDAC8 (Homo sapiens, UniProt Q9BY41)
# T1 construct: Recombinant N-terminal GST tag full-length human HDAC8; purchased SignalChem H90-30G-1000; host or cells: baculovirus in Sf9 insect cells
# T1 sequence (Q9BY41 1-377): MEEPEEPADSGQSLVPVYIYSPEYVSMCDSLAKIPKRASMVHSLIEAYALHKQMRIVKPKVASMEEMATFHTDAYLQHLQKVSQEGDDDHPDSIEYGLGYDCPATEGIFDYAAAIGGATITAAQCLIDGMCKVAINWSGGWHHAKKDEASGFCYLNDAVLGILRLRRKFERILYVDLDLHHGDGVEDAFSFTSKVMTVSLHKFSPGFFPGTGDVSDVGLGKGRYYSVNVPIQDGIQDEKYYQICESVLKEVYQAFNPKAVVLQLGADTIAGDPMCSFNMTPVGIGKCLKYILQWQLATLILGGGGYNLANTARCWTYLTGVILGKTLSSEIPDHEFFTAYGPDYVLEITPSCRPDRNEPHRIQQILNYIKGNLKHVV
# Assay: HDAC8 probe binding assay, time resolved fluorescence (TRF) format
# Conditions: compounds grouped by IC50 range (Table 2)
# Method: The HDAC8 probe binding assay was performed using a time resolved fluorescence (TRF) assay format. Recombinant N-terminal GST tag full-length human HDAC8 was expressed and purified from baculovirus in Sf9 insect cells (SignalChem, #[…]-1000). […] Plates were incubated for 16 hours at room temperature before time resolved fluorescence was read on the Envision (Excitation at 340 nm, and Emission at 485 nm and 535 nm, Perkin Elmer). Data from HDAC8 Assays were reported as percent inhibition (inh) compared with control wells based on the following equation: % inh=1-((FLU-AveLow)/(AveHigh-AveLow)) where FLU=measured time resolved fluorescence. AveLow=average time resolved fluorescence of no enzyme control (n=32). AveHigh=average time resolved fluorescence of DMSO control (n=32). IC50 values were determined by curve fitting of the standard 4 parameter logistic fitting algorithm included in the Activity Base software package: IDBS XE Designer Model205. Data is fitted using the Levenburg Marquardt algorithm. Ranges of IC50 values for compounds of the invention are disclosed in Table 2: Table 2. provides the compounds arranged according to […] determined in a time resolved fluorescence (TRF) assay. The compounds are separated into four groups: […]
row,IC50 [nM],SMILES
1,≤ 25,"COc1ccc2nc(CN3C(=O)COc4ccc(C(=O)NO)cc43)sc2n1 [Compound I-211, N-hydroxy-4-((5-methoxythiazolo[5,4-b]pyridin-2-yl)methyl)-3-oxo-3,4-dihydro-2H-benzo[b][1,4]oxazine-6-carboxamide]"
2,≤ 25,"N#Cc1ccc(Cl)c(CN2C(=O)COc3ccc(C(=O)NO)cc32)c1 [Compound I-373, 4-(2-chloro-5-cyanobenzyl)-N-hydroxy-3-oxo-3,4-dihydro-2H-benzo[b][1,4]oxazine-6-carboxamide]"
3,≤ 25,"O=C(NO)c1ccc2c(c1)N(Cc1nc3ccccc3s1)C(=O)CO2 [Compound I-289, 4-(benzo[d]thiazol-2-ylmethyl)-N-hydroxy-3-oxo-3,4-dihydro-2H-benzo[b][1,4]oxazine-6-carboxamide]"
4,25 to 100,"O=C(NO)c1ccc2c(c1)N(Cc1cn3cc(F)ccc3n1)C(=O)CO2 [Compound I-368, 4-((6-fluoroimidazo[1,2-a]pyridin-2-yl)methyl)-N-hydroxy-3-oxo-3,4-dihydro-2H-benzo[b][1,4]oxazine-6-carboxamide]"
5,≤ 25,"O=C(NO)c1ccc2c(c1)N(Cc1cccc(Oc3ccccc3)c1)C(=O)CO2 [Compound I-220, N-hydroxy-3-oxo-4-(3-phenoxybenzyl)-3,4-dihydro-2H-benzo[b][1,4]oxazine-6-carboxamide]"
6,≤ 25,"O=C(NO)c1ccc2c(c1)N(Cc1ccc(-n3cccn3)cc1)C(=O)OC2 [Compound I-166, 1-(4-(1H-pyrazol-1-yl)benzyl)-N-hydroxy-2-oxo-1,4-dihydro-2H-benzo[d][1,3]oxazine-7-carboxamide]"
7,25 to 100,"O=C(NO)c1ccc2c(c1)N(Cc1cn(-c3ccccc3)cn1)C(=O)CO2 [Compound I-205, N-hydroxy-3-oxo-4-((1-phenyl-1H-imidazol-4-yl)methyl)-3,4-dihydro-2H-benzo[b][1,4]oxazine-6-carboxamide]"
8,≤ 25,"Cn1cc2ccc(CN3C(=O)COc4ccc(C(=O)NO)cc43)cc2n1 [Compound I-240, N-hydroxy-4-((2-methyl-2H-indazol-6-yl)methyl)-3-oxo-3,4-dihydro-2H-benzo[b][1,4]oxazine-6-carboxamide]"
9,25 to 100,"CC1(C)Oc2ccc(C(=O)NO)cc2N(Cc2ccc3ccccc3c2)C1=O [Compound I-317, N-hydroxy-2,2-dimethyl-4-(naphthalen-2-ylmethyl)-3-oxo-3,4-dihydro-2H-benzo[b][1,4]oxazine-6-carboxamide]"
10,≤ 25,"O=C(NO)c1ccc2c(c1)N(Cc1ccc3ccccc3c1)C(=O)CO2 [Compound I-323, N-hydroxy-4-(naphthalen-2-ylmethyl)-3-oxo-3,4-dihydro-2H-benzo[b][1,4]oxazine-6-carboxamide]"
11,25 to 100,"COc1cc(CN2C(=O)COc3ccc(C(=O)NO)cc32)ccc1F [Compound I-353, 4-(4-fluoro-3-methoxybenzyl)-N-hydroxy-3-oxo-3,4-dihydro-2H-benzo[b][1,4]oxazine-6-carboxamide]"
12,25 to 100,"O=C(NO)c1ccc2c(c1)N(Cc1c[nH]c3ccccc13)C(=O)CO2 [Compound I-200, 4-((1H-indol-3-yl)methyl)-N-hydroxy-3-oxo-3,4-dihydro-2H-benzo[b][1,4]oxazine-6-carboxamide]"
13,25 to 100,"O=C(NO)c1ccc2c(c1)N(Cc1cn3ccsc3n1)C(=O)CO2 [Compound I-363, N-hydroxy-4-(imidazo[2,1-b]thiazol-6-ylmethyl)-3-oxo-3,4-dihydro-2H-benzo[b][1,4]oxazine-6-carboxamide]"
14,25 to 100,"O=C(NO)c1cc(F)c2c(c1)N(Cc1ccc(-n3cccn3)cc1)C(=O)CO2 [Compound I-164, 4-(4-(1H-pyrazol-1-yl)benzyl)-8-fluoro-N-hydroxy-3-oxo-3,4-dihydro-2H-benzo[b][1,4]oxazine-6-carboxamide]"
15,≤ 25,"Cn1cc2cc(CN3C(=O)COc4ccc(C(=O)NO)cc43)ccc2n1 [Compound I-238, N-hydroxy-4-((2-methyl-2H-indazol-5-yl)methyl)-3-oxo-3,4-dihydro-2H-benzo[b][1,4]oxazine-6-carboxamide]"
16,≤ 25,"O=C(NO)c1ccc2c(c1)N(Cc1ccc(Cl)cc1F)C(=O)CO2 [Compound I-344, 4-(4-chloro-2-fluorobenzyl)-N-hydroxy-3-oxo-3,4-dihydro-2H-benzo[b][1,4]oxazine-6-carboxamide]"

row,IC50 [nM],SMILES
1,≤ 25,"CC(C)(C)OC(=O)N1CCc2cc(CN3C(=O)COc4ccc(C(=O)NO)cc43)ccc2C1 [Compound I-181, tert-butyl 6-((6-(hydroxycarbamoyl)-3-oxo-2,3-dihydrobenzo[b][1,4]oxazin-4-yl)methyl)-3,4-dihydroisoquinoline-2(1H)-carboxylate]"
2,25 to 100,"COc1cc(F)cc(CN2C(=O)COc3ccc(C(=O)NO)cc32)c1 [Compound I-342, 4-(3-fluoro-5-methoxybenzyl)-N-hydroxy-3-oxo-3,4-dihydro-2H-benzo[b][1,4]oxazine-6-carboxamide]"
3,≤ 25,"CN1C(=O)CCc2cc(CN3C(=O)COc4ccc(C(=O)NO)cc43)ccc21 [Compound I-183, N-hydroxy-4-((1-methyl-2-oxo-1,2,3,4-tetrahydroquinolin-6-yl)methyl)-3-oxo-3,4-dihydro-2H-benzo[b][1,4]oxazine-6-carboxamide]"
4,25 to 100,"O=C(NO)c1ccc2c(c1)N(Cc1ccc(Oc3ccccc3)cc1)C(=O)CO2 [Compound I-229, N-hydroxy-3-oxo-4-(4-phenoxybenzyl)-3,4-dihydro-2H-benzo[b][1,4]oxazine-6-carboxamide]"
5,25 to 100,"O=C(NO)c1ccc2c(c1)N(Cc1cnc3[nH]ccc3c1)C(=O)CO2 [Compound I-324, 4-((1H-pyrrolo[2,3-b]pyridin-5-yl)methyl)-N-hydroxy-3-oxo-3,4-dihydro-2H-benzo[b][1,4]oxazine-6-carboxamide]"
6,≤ 25,"O=C(NO)c1ccc2c(c1)N(Cc1nc3cccnc3s1)C(=O)CO2 [Compound I-359, N-hydroxy-3-oxo-4-(thiazolo[5,4-b]pyridin-2-ylmethyl)-3,4-dihydro-2H-benzo[b][1,4]oxazine-6-carboxamide]"
7,25 to 100,"O=C(NO)c1ccc2c(c1)N(Cc1cc(Cl)cc(C(F)(F)F)c1)C(=O)CO2 [Compound I-349, 4-(3-chloro-5-(trifluoromethyl)benzyl)-N-hydroxy-3-oxo-3,4-dihydro-2H-benzo[b][1,4]oxazine-6-carboxamide]"
8,≤ 25,"Cc1cnc2sc(CN3C(=O)COc4ccc(C(=O)NO)cc43)nc2c1 [Compound I-207, N-hydroxy-4-((6-methylthiazolo[5,4-b]pyridin-2-yl)methyl)-3-oxo-3,4-dihydro-2H-benzo[b][1,4]oxazine-6-carboxamide]"
9,≤ 25,"CC(=O)Nc1ccc(CN2C(=O)COc3ccc(C(=O)NO)cc32)cc1 [Compound I-186, 4-(4-acetamidobenzyl)-N-hydroxy-3-oxo-3,4-dihydro-2H-benzo[b][1,4]oxazine-6-carboxamide]"
10,≤ 25,"Cc1nn(C)c2ncc(CN3C(=O)COc4ccc(C(=O)NO)cc43)cc12 [Compound I-325, 4-((1,3-dimethyl-1H-pyrazolo[3,4-b]pyridin-5-yl)methyl)-N-hydroxy-3-oxo-3,4-dihydro-2H-benzo[b][1,4]oxazine-6-carboxamide]"
11,25 to 100,"C[C@@H](c1ccccc1)N1C(=O)C(C)(C)Oc2ccc(C(=O)NO)cc21 [Compound I-303, (S)-N-hydroxy-2,2-dimethyl-3-oxo-4-(1-phenylethyl)-3,4-dihydro-2H-benzo[b][1,4]oxazine-6-carboxamide]"
12,≤ 25,"Cc1nc2ccc(CN3C(=O)COc4ccc(C(=O)NO)cc43)cc2o1 [Compound I-239, N-hydroxy-4-((2-methylbenzo[d]oxazol-6-yl)methyl)-3-oxo-3,4-dihydro-2H-benzo[b][1,4]oxazine-6-carboxamide]"
13,25 to 100,"O=C(NO)c1ccc2c(c1)N(Cc1n[nH]c3ccccc13)C(=O)CO2 [Compound I-203, 4-((1H-indazol-3-yl)methyl)-N-hydroxy-3-oxo-3,4-dihydro-2H-benzo[b][1,4]oxazine-6-carboxamide]"
14,25 to 100,"O=C(NO)c1ccc2c(c1)N(Cc1ccc(N3CCOCC3)cc1)C(=O)CO2 [Compound I-177, N-hydroxy-4-(4-morpholinobenzyl)-3-oxo-3,4-dihydro-2H-benzo[b][1,4]oxazine-6-carboxamide]"
15,≤ 25,"COc1ccc(Cl)c(CN2C(=O)COc3ccc(C(=O)NO)cc32)c1 [Compound I-347, 4-(2-chloro-5-methoxybenzyl)-N-hydroxy-3-oxo-3,4-dihydro-2H-benzo[b][1,4]oxazine-6-carboxamide]"
16,≤ 25,"O=C(NO)c1ccc2c(c1)N(Cc1cc3ccccc3cn1)C(=O)CO2 [Compound I-334, N-hydroxy-4-(isoquinolin-3-ylmethyl)-3-oxo-3,4-dihydro-2H-benzo[b][1,4]oxazine-6-carboxamide]"
